In patent publication US8106063B2, “Pyrimidyl sulphone amide derivatives as chemokine receptor modulators” (AstraZeneca AB, priority 2002, dated 2012):

Target: T1, hrCXCR2 (Homo sapiens, UniProt P25025)
T1 construct: expressed in transfected cells; host or cells: HEK 293 cells (ECACC No. 85120602), membranes of the highest expressing clone
T1 sequence (P25025 1-360): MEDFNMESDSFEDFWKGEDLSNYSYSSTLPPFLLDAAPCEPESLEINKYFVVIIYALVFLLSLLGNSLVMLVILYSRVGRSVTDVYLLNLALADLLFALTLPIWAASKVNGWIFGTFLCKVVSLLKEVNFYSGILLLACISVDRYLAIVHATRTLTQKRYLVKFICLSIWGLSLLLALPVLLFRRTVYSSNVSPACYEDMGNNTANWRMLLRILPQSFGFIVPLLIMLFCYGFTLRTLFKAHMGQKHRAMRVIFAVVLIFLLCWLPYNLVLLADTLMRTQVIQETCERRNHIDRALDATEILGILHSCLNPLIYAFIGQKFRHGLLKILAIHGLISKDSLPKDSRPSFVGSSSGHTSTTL
Assay: Ligand binding assay ([125I]IL-8 binding to hrCXCR2 membranes)
Conditions: ~50 pM [125I]IL-8, membranes of HEK 293 cells expressing hrCXCR2, 1.5 hours at room temperature

Compound: Cc1cccc(CSc2nc(NC(C)(C)CO)cc(NS(C)(=O)=O)n2)c1F [Example 116, N-{2-[(2-Fluoro-3-methylbenzyl)thio]-6-[(2-hydroxy-1,1-dimethylethyl)amino]-pyrimidin-4-yl}methanesulfonamide]
- IC50: 158 nM
